The structures appear in SMILES notation. Values after ≈ are worked out from the molar mass of the structure shown. Read-outs that look alike come from different tables or passages of the source. Some results are limits rather than exact numbers.

The source of these data is US4698352A, “4-oxo-1,4-dihydronicotinic acid derivatives, salts thereof, and antibacterial agents containing the same” (Toyama Chemical Co., Ltd., priority 1982, dated 1987).

What all share (assay): Antibacterial activity (MIC), agar dilution
Common to all, as to format: cell-based

One test concerns Kl. pneumoniae Y-41. As to conditions: Klebsiella pneumoniae, Y41, 10^6 cells per ml, 37° C., 20 hours, read-out: MIC. From the text: (§1) The amount of bacteria inoculated was 10^4 cells per plate (10^6 cells per ml).
Another test has as its system E. coli TK-111. As to conditions: Escherichia coli, TK111, 20 h, E. coli TK-111; 10^6 cells per ml; 37° C., 20 hours; read-out: MIC.
Description: as §1

The test system of the next test is Ent. cloacae IID977. Conditions: Enterobacter cloacae, IID977, 20 h.
Description: as §1

The test system of another test is Ps. aeruginosa IFO3445. As to conditions: Pseudomonas aeruginosa; Ps. aeruginosa IFO3445; 10^6 cells per ml; 37° C., 20 hours; read-out: MIC.
Description: as §1

Another test has as its system E. coli NIHJ JC-2. Conditions: Escherichia coli, NIHJJC2, 20 h.
Description: as §1

In a further test the test system is Pro. morganii T-216. Conditions: Morganella morganii, 37° C.
Description: as §1

A further test relates to Kl. pneumoniae Y-50. Conditions: Klebsiella pneumoniae, Y50, 20 h, 10^6 cells per ml, 37° C., read-out: MIC.
Description: as §1

The subject of a further test is Pro. vulgaris GN3027. As to conditions: Proteus vulgaris, GN3027, 20 h, Pro. vulgaris GN3027; 10^6 cells per ml; 37° C., 20 hours; read-out: MIC.
Description: as §1

The next test has as its system Aci. antitratus A-6. As to conditions: 20 h, Aci. antitratus A-6; 10^6 cells per ml; 37° C., 20 hours; read-out: MIC.
Description: as §1

In a further test the test system is St. aureus FDA209P. As to conditions: Staphylococcus aureus, FDA209P, 20 h.
Description: as §1

For a further test, the system named is Pro. mirabilis T-111. As to conditions: Proteus mirabilis, 37° C.
Description: as §1

The test system of another test is Ps. aeruginosa S-68. As to conditions: Pseudomonas aeruginosa.
Description: as §1

For another test, the system named is Ps. aeruginosa GN918**. Conditions: Pseudomonas aeruginosa, Ps. aeruginosa GN918, cephalospolinase-producing, 10^6 cells per ml.
Description: as §1
(§2) ** Cephalospolinase-producing bacteria

The test system of a further test is E. coli GN5482**. Conditions: Escherichia coli, 20 h; E. coli GN5482, cephalospolinase-producing; 10^6 cells per ml; read-out: MIC.
Description: as §1, §2

For the next test, the system named is Pro. vulgaris GN76**. As to conditions: Proteus vulgaris.
Description: as §1, §2

The next test relates to Ps. aeruginosa GN3379*. Conditions: Pseudomonas aeruginosa, Ps. aeruginosa GN3379, penicillinase-producing, 10^6 cells per ml.
Description: as §1
(§3) * Penicillinase-producing bacteria

Another test deals with St. aureus F-137*. As to conditions: Staphylococcus aureus, 20 h.
Description: as §1, §3

For the next test, the system named is E. coli TK-3*. Conditions: Escherichia coli, 20 h.
Description: as §1, §3

The next test has as its system Kl. pneumoniae Y-4*. As to conditions: Klebsiella pneumoniae, 20 h, Kl. pneumoniae Y-4, penicillinase-producing; 10^6 cells per ml; read-out: MIC.
Description: as §1, §3

Setting [1] is: E. coli NIHJ JC-2, 10^6 cells per ml, 37° C., 20 hours, read-out: MIC.
[2] abbreviates: T216, 10^6 cells per ml, 20 hours, read-out: MIC.
Setting [3] is: St. aureus FDA209P, 10^6 cells per ml, 37° C., 20 hours, read-out: MIC.
Where [4] appears, read: St. aureus F-137, penicillinase-producing, 10^6 cells per ml, read-out: MIC.
The mark [5] stands for this setting: E. coli TK-3, penicillinase-producing, 10^6 cells per ml, read-out: MIC.
The mark [6] stands for this setting: S68, Ps. aeruginosa S-68, 10^6 cells per ml, 37° C., 20 hours, read-out: MIC.

In general, MIC refers to the least concentration at which growth counts as inhibited. Consider `CN(C)c1ccc(-c2cc(=O)c(C(=O)O)cn2-c2ccc(F)cc2)cc1`, for which the MIC in the test on Kl. pneumoniae Y-41 stood at 6.25 µg/mL (≈ 17.7 µM); in the test on E. coli TK-111 it was 0.39 µg/mL (≈ 1.11 µM); with Ent. cloacae IID977 (Ent. cloacae IID977, 10^6 cells per ml, 37° C., 20 hours, read-out: MIC), 3.13 µg/mL (≈ 8.88 µM); with Ps. aeruginosa IFO3445 it was 25 µg/mL (≈ 70.9 µM); with E. coli NIHJ JC-2 (setting [1]), 0.78 µg/mL (≈ 2.21 µM); in the test on Pro. morganii T-216 (setting [2]) it was 3.13 µg/mL (≈ 8.88 µM). In addition, the minimum inhibitory concentration (MIC) in the test on Kl. pneumoniae Y-50 was 1.56 µg/mL (≈ 4.43 µM); in the test with Pro. vulgaris GN3027, 0.39 µg/mL (≈ 1.11 µM); with Aci. antitratus A-6, 0.39 µg/mL (≈ 1.11 µM); with St. aureus FDA209P (setting [3]) it was 0.78 µg/mL (≈ 2.21 µM); in the test with Pro. mirabilis T-111 (T111, 20 h, 10^6 cells per ml), 6.25 µg/mL (≈ 17.7 µM); against Ps. aeruginosa S-68 (S68, 20 h), 12.5 µg/mL (≈ 35.5 µM). Also, the MIC in the test on Ps. aeruginosa GN918** (GN918, 20 h) turned out to be 12.5 µg/mL (≈ 35.5 µM); with E. coli GN5482**, 0.2 µg/mL (≈ 0.568 µM); in the test on Pro. vulgaris GN76** (GN76, 20 h), 1.56 µg/mL (≈ 4.43 µM); against Ps. aeruginosa GN3379* (GN3379, 20 h), 12.5 µg/mL (≈ 35.5 µM); with St. aureus F-137* (setting [4]), 0.78 µg/mL (≈ 2.21 µM); in the test on E. coli TK-3* (setting [5]), 3.13 µg/mL (≈ 8.88 µM). In the test with Kl. pneumoniae Y-4*, the MIC came out at 12.5 µg/mL (≈ 35.5 µM).
Turning to `Cc1ccc(-c2cc(=O)c(C(=O)O)cn2-c2ccc(F)cc2)s1`, the MIC with Kl. pneumoniae Y-41 is 6.25 µg/mL (≈ 19 µM); in the test on E. coli TK-111, 0.78 µg/mL (≈ 2.37 µM); in the test on Ent. cloacae IID977 it was 3.13 µg/mL (≈ 9.5 µM); in the test with Ps. aeruginosa IFO3445 it was 50 µg/mL (≈ 152 µM); with E. coli NIHJ JC-2 (setting [1]), 1.56 µg/mL (≈ 4.74 µM); against Pro. morganii T-216 (T216, 20 h, 10^6 cells per ml), 3.13 µg/mL (≈ 9.5 µM). The MIC in the test with Kl. pneumoniae Y-50 was determined as 3.13 µg/mL (≈ 9.5 µM); in the test with Pro. vulgaris GN3027, 0.2 µg/mL (≈ 0.607 µM); in the test on Aci. antitratus A-6, 1.56 µg/mL (≈ 4.74 µM); against St. aureus FDA209P, 3.13 µg/mL (≈ 9.5 µM); against Pro. mirabilis T-111 (T111, 20 h, 10^6 cells per ml) it was 6.25 µg/mL (≈ 19 µM); in the test on Ps. aeruginosa S-68 (setting [6]), 25 µg/mL (≈ 75.9 µM). The MIC in the test on Ps. aeruginosa GN918** (20 h, read-out: MIC) was 50 µg/mL (≈ 152 µM); with E. coli GN5482**, 0.2 µg/mL (≈ 0.607 µM); with Pro. vulgaris GN76** (20 h, Pro. vulgaris GN76, cephalospolinase-producing, 10^6 cells per ml, read-out: MIC), 1.56 µg/mL (≈ 4.74 µM); in the test on Ps. aeruginosa GN3379* (20 h, read-out: MIC), 25 µg/mL (≈ 75.9 µM); in the test on St. aureus F-137* it was 3.13 µg/mL (≈ 9.5 µM); in the test on E. coli TK-3* it was 3.13 µg/mL (≈ 9.5 µM). Also, in the test on Kl. pneumoniae Y-4*, the MIC stood at 12.5 µg/mL (≈ 38 µM).
Regarding `O=C(O)c1cn(-c2ccc(F)cc2)c(-c2ccc(Br)s2)cc1=O`, the minimal inhibitory concentration (MIC) was 12.5 µg/mL (≈ 31.7 µM) with Kl. pneumoniae Y-41; 1.56 µg/mL (≈ 3.96 µM) in the test with E. coli TK-111; 12.5 µg/mL (≈ 31.7 µM) against Ent. cloacae IID977; 50 µg/mL (≈ 127 µM) with Ps. aeruginosa IFO3445; 3.13 µg/mL (≈ 7.94 µM) against E. coli NIHJ JC-2; 6.25 µg/mL (≈ 15.9 µM) with Pro. morganii T-216 (setting [2]). Moreover, the MIC with Kl. pneumoniae Y-50 was found to be 3.13 µg/mL (≈ 7.94 µM); in the test on Pro. vulgaris GN3027, 0.39 µg/mL (≈ 0.989 µM); in the test with Aci. antitratus A-6, 1.56 µg/mL (≈ 3.96 µM); in the test with St. aureus FDA209P (setting [3]) it was 1.56 µg/mL (≈ 3.96 µM); in the test on Pro. mirabilis T-111 (T111, 20 h, 10^6 cells per ml) it was 12.5 µg/mL (≈ 31.7 µM); with Ps. aeruginosa S-68 (setting [6]) it was 25 µg/mL (≈ 63.4 µM). For the same molecule, the MIC in the test with Ps. aeruginosa GN918** (20 h, read-out: MIC) worked out at 100 µg/mL (≈ 254 µM); with E. coli GN5482** it was 0.39 µg/mL (≈ 0.989 µM); against Pro. vulgaris GN76** (GN76, 20 h), 3.13 µg/mL (≈ 7.94 µM); in the test with Ps. aeruginosa GN3379* (20 h, read-out: MIC) it was 25 µg/mL (≈ 63.4 µM); in the test with St. aureus F-137*, 3.13 µg/mL (≈ 7.94 µM); in the test with E. coli TK-3* (setting [5]), 6.25 µg/mL (≈ 15.9 µM). The MIC in the test on Kl. pneumoniae Y-4* stood at 25 µg/mL (≈ 63.4 µM).
`CN(C)c1ccc(-c2cc(=O)c(C(=O)O)cn2-c2ccccc2F)cc1`: the MIC with Kl. pneumoniae Y-41 was 6.25 µg/mL (≈ 17.7 µM); in the test on E. coli TK-111, 0.78 µg/mL (≈ 2.21 µM); in the test on Ent. cloacae IID977, 6.25 µg/mL (≈ 17.7 µM); in the test with Ps. aeruginosa IFO3445, above 100 µg/mL; with E. coli NIHJ JC-2 (setting [1]) it was 1.56 µg/mL (≈ 4.43 µM); in the test on Pro. morganii T-216 (T216, 20 h, 10^6 cells per ml), 6.25 µg/mL (≈ 17.7 µM). The MIC was found to be 3.13 µg/mL (≈ 8.88 µM) in the test on Kl. pneumoniae Y-50; 0.78 µg/mL (≈ 2.21 µM) with Pro. vulgaris GN3027; 1.56 µg/mL (≈ 4.43 µM) in the test with Aci. antitratus A-6; 1.56 µg/mL (≈ 4.43 µM) in the test with St. aureus FDA209P (setting [3]); 25 µg/mL (≈ 70.9 µM) in the test on Pro. mirabilis T-111 (T111, 10^6 cells per ml, 20 hours, read-out: MIC); 25 µg/mL (≈ 70.9 µM) in the test on Ps. aeruginosa S-68 (setting [6]). Also, the MIC with Ps. aeruginosa GN918** (20 h, read-out: MIC) is above 100 µg/mL; with E. coli GN5482** it was 0.39 µg/mL (≈ 1.11 µM); against Pro. vulgaris GN76** (GN76, 20 h) it was 3.13 µg/mL (≈ 8.88 µM); in the test on Ps. aeruginosa GN3379* (20 h, read-out: MIC), above 100 µg/mL; in the test on St. aureus F-137* (setting [4]) it was 1.56 µg/mL (≈ 4.43 µM); with E. coli TK-3* it was 3.13 µg/mL (≈ 8.88 µM). Also, the minimal inhibitory concentration (MIC) in the test with Kl. pneumoniae Y-4* turned out to be 25 µg/mL (≈ 70.9 µM).
